According to ChEMBL document CHEMBL1131402, “Potent piperazine hydroxyethylamine HIV protease inhibitors containing novel P3 ligands” (Bioorg Med Chem Lett, 1998):

How the values were obtained:
[1] = test system: MT4; experiment: Cytotoxicity against MT-4 cells was determined by using cytopathic effect assay; assay type: functional, Homo sapiens
[2] = test system: Human immunodeficiency virus 1; experiment: Anti-HIV activity was determined in MT-4 cells in the presence of 0% human serum using cytopathic effect assay; assay type: functional, organism-based; conditions: Human immunodeficiency virus 1, MT4
[3] = test system: Human immunodeficiency virus 1; experiment: Anti-HIV activity was determined in MT-4 cells in the presence of 50% human serum using cytopathic effect assay; assay type: functional, organism-based; conditions: Human immunodeficiency virus 1, MT4, Serum
[4] = target: Human immunodeficiency virus type 1 protease (Human immunodeficiency virus 1) (UniProt Q72874); experiment: Inhibition of HIV protease at 0.5 nM
[5] = target: Cytochrome P450 3A4 (Homo sapiens, UniProt P08684); experiment: […] inhibition of human liver microsomal Cytochrome P450 3A4; assay type: ADME
[6] = target: Human immunodeficiency virus type 1 protease (Human immunodeficiency virus 1) (UniProt Q72874); experiment: Compound was tested for the inhibition of HIV protease at 27 nM
[7] = test system: MT4; experiment: Anti-HIV activity was determined in MT-4 cells in the presence of 50% human serum using cytopathic effect assay; NA means not active; assay type: functional, cell-based
[8] = test system: MT4; experiment: Cytotoxicity against MT-4 cells was determined by using cytopathic effect assay; NA means not active; assay type: functional, cell-based, Homo sapiens
[9] = target: Human immunodeficiency virus type 1 protease (Human immunodeficiency virus 1) (UniProt Q72874); experiment: Compound was tested for the inhibition of HIV protease at 97 nM
[10] = test system: MT4; experiment: Anti-HIV activity was determined in MT-4 cells in the presence of 0% human serum using cytopathic effect assay; Not active; assay type: functional, cell-based
[11] = test system: Human immunodeficiency virus 1; experiment: Antiviral activity was assessed against M36M/I, I54I/V, V82F/A/S/T viral strains isolated from patient-313 pretreated with ritonavir(14 fold) at 85th day; assay type: functional, organism-based
[12] = test system: Human immunodeficiency virus 1; experiment: Antiviral activity was assessed against I54I/V, A71V, V82A, L90L/M viral strains isolated from patient-235 pretreated with ritonavir (4 fold) at 36th week; assay type: functional, organism-based
[13] = test system: Human immunodeficiency virus 1; experiment: Antiviral activity was assessed against K20K/R, 36M/I, 154V, A71A/V, V82T viral strains isolated from patient-129 pretreated with ritonavir(33 fold) at 16th week; assay type: functional, organism-based
[14] = test system: Human immunodeficiency virus 1; experiment: Antiviral activity was assessed against K20K/R, M36M/I, 154V/I, L63L/P, V82/A viral strains isolated from patient-131 pretreated with ritonavir(20 fold) at 28th week; assay type: functional, organism-based
[15] = test system: Human immunodeficiency virus 1; experiment: Antiviral activity was assessed against M36I, I54V, A71V, V82T viral strains isolated from patient-129 pretreated with ritonavir(14 fold) at 8th week; assay type: functional, organism-based
[16] = test system: Human immunodeficiency virus 1; experiment: Antiviral activity was assessed against M36M/I, V82F viral strains isolated from patient-313 pretreated with ritonavir(9 fold) at 57th day; assay type: functional, organism-based
[17] = test system: Human immunodeficiency virus 1; experiment: Antiviral activity was assessed against I54I/V, A71V, V82A, L90L/M viral strains isolated from patient-235 pretreated with ritonavir (2 fold) at 36th week; assay type: functional, organism-based
[18] = test system: Human immunodeficiency virus 1; experiment: Antiviral activity was assessed against K20K/R, 36M/I, 154V, A71A/V, V82T viral strains isolated from patient-129 pretreated with ritonavir(7 fold) at 16th week; assay type: functional, organism-based
[19] = test system: Human immunodeficiency virus 1; experiment: Antiviral activity was assessed against M36I, I54V, A71V, V82T viral strains isolated from patient-129 pretreated with ritonavir(2 fold) at 8th week; assay type: functional, organism-based
[20] = test system: Human immunodeficiency virus 1; experiment: Antiviral activity was assessed against M36M/I, I54I/V, V82F/A/S/T viral strains isolated from patient-313 pretreated with ritonavir(3 fold) at 85th day; assay type: functional, organism-based
[21] = test system: Human immunodeficiency virus 1; experiment: Antiviral activity was assessed against M36M/I, V82F viral strains isolated from patient-313 pretreated with ritonavir(3 fold) at 57th day; assay type: functional, organism-based
[22] = test system: Human immunodeficiency virus 1; experiment: Antiviral activity was assessed against K20K/R, M36M/I, 154V/I, L63L/P, V82/A viral strains isolated from patient-131 pretreated with ritonavir(7 fold) at 28th week; assay type: functional, organism-based
[23] = target: Human immunodeficiency virus type 1 protease (Human immunodeficiency virus 1) (UniProt Q72874); experiment: Compound was tested for the inhibition of HIV protease at 120 nM

Cytochrome P450 3A4, sequence (P08684 whole entry): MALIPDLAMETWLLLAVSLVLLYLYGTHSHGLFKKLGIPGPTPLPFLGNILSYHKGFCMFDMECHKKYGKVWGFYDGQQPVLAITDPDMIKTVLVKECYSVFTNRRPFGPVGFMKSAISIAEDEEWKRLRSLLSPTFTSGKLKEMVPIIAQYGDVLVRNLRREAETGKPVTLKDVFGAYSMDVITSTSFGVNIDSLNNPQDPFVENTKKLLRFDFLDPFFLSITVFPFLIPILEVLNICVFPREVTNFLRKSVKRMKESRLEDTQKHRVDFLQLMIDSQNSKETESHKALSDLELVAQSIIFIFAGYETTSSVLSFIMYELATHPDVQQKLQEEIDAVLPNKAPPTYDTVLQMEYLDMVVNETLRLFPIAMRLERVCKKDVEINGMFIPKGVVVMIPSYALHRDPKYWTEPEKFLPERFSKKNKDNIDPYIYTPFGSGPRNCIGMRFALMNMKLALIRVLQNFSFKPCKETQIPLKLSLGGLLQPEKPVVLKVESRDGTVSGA

Row | SMILES | EC50 [2] [nM] | EC50 [3] [nM] | inhibition [4] [%] | CCIC50 [1] [µM] | also measured
1 | CC(C)[C@H](NC(=O)OCc1cncs1)C(=O)N[C@@H](Cc1ccccc1)[C@H](O)CN1CCN(Cc2cncs2)C[C@H]1C(=O)NC(C)(C)C | 57 | 75 | 45 | >100 | –
2 | CC(C)[C@H](NC(=O)N(C)Cc1cncs1)C(=O)N[C@@H](Cc1ccccc1)[C@H](O)CN1CCN(Cc2cncs2)C[C@H]1C(=O)NC(C)(C)C | 259 | 211 | 50 | >100 | –
3 | CC(C)c1nc(COC(=O)N[C@H](C(=O)N[C@@H](Cc2ccccc2)[C@H](O)CN2CCN(Cc3cncs3)C[C@H]2C(=O)NC(C)(C)C)C(C)C)cs1 | 12 | 67 | 67 | 57 | IC50 [5]: 15000 nM
4 | CC(C)c1nc(COC(=O)N[C@@H](C(=O)N[C@@H](Cc2ccccc2)[C@H](O)CN2CCN(Cc3cncs3)C[C@H]2C(=O)NC(C)(C)C)C(C)C)cs1 | 6000 | 26000 | – | 18 | inhibition [6]: 50%
5 | CC(C)c1nc(COC(=O)N[C@H](C(=O)N[C@@H](Cc2ccccc2)[C@H](O)CN2CCN(Cc3ccc(O)cc3)C[C@H]2C(=O)NC(C)(C)C)C(C)C)cs1 | 47 | 226 | 54 | 19 | –
6 | CC(C)c1nc(COC(=O)N[C@H](C(=O)N[C@@H](Cc2ccccc2)[C@H](O)CN2CCN(Cc3nc4ccccc4[nH]3)C[C@H]2C(=O)NC(C)(C)C)C(C)C)cs1 | 46 | 1060 | 65 | 18 | –
7 | CC(C)c1nc(COC(=O)N[C@H](C(=O)N[C@@H](Cc2ccccc2)[C@H](O)CN2CCN(Cc3cccc4c3COC4)C[C@H]2C(=O)NC(C)(C)C)C(C)C)cs1 | 5 | 42 | 69 | 18 | IC50 [5]: 12000 nM
8 | CC(C)c1nc(COC(=O)N[C@H](C(=O)N[C@@H](Cc2ccccc2)[C@H](O)CN2CCN(Cc3ccncc3)C[C@H]2C(=O)NC(C)(C)C)C(C)C)cs1 | 17 | 76 | 73 | 56 | –
9 | CC(C)c1nc(CN(C)C(=O)N[C@H](C(=O)N[C@@H](Cc2ccccc2)[C@H](O)CN2CCN(Cc3ccccc3)C[C@H]2C(=O)NC(C)(C)C)C(C)C)cs1 | 48 | 306 | 66 | 56 | –
10 | CC(C)[C@@H](NC(=O)N(C)Cc1cncs1)C(=O)N[C@@H](Cc1ccccc1)[C@H](O)CN1CCN(Cc2cncs2)C[C@H]1C(=O)NC(C)(C)C | – | – | – | – | EC50 [7]: Not Active; EC50 [8]: Not Active; inhibition [9]: 50%; EC50 [10]: Not Active
11 | CC(C)c1nc(CN(C)C(=O)N[C@H](C(=O)N[C@@H](Cc2ccccc2)C[C@H](O)[C@H](Cc2ccccc2)NC(=O)OCc2cncs2)C(C)C)cs1 [RITONAVIR] | 70 | 810 | – | 56 | EC50 [11]: 575 nM; EC50 [12]: 87 nM; EC50 [13]: 368 nM; EC50 [14]: 365 nM; EC50 [15]: 149 nM; EC50 [16]: 340 nM
12 | CC(C)c1nc(COC(=O)N[C@H](C(=O)N[C@@H](Cc2ccccc2)[C@H](O)CN2CCN(Cc3cccnc3)C[C@H]2C(=O)NC(C)(C)C)C(C)C)cs1 | 12 | 67 | 69 | 59 | IC50 [5]: 2300 nM
13 | CC(C)c1nc(COC(=O)N[C@H](C(=O)N[C@@H](Cc2ccccc2)[C@H](O)CN2CCN(Cc3ccccc3)C[C@H]2C(=O)NC(C)(C)C)C(C)C)cs1 | 22 | 80 | 61 | 45 | –
14 | CC(C)c1nc(COC(=O)N[C@H](C(=O)N[C@@H](Cc2ccccc2)[C@H](O)CN2CCN(Cc3ccc4c(c3)OCO4)C[C@H]2C(=O)NC(C)(C)C)C(C)C)cs1 | 7 | 40 | 60 | 13 | IC50 [5]: 9600 nM; EC50 [17]: 24 nM; EC50 [18]: 33 nM; EC50 [19]: 10 nM; EC50 [20]: 27 nM; EC50 [21]: 24 nM; EC50 [22]: 29 nM
15 | CC(C)[C@@H](NC(=O)N(C)Cc1cncs1)C(=O)N[C@@H](Cc1ccccc1)[C@H](O)CN1CCN(Cc2ccccc2)C[C@H]1C(=O)NC(C)(C)C | 3000 | 7000 | – | 56 | inhibition [23]: 50%
16 | CC(C)[C@H](NC(=O)OCc1cncs1)C(=O)N[C@@H](Cc1ccccc1)[C@H](O)CN1CCN(Cc2ccccc2)C[C@H]1C(=O)NC(C)(C)C | 17 | 104 | 40 | 53 | –
17 | CC(C)c1nc(CN(C)C(=O)N[C@H](C(=O)N[C@@H](Cc2ccccc2)[C@H](O)CN2CCN(Cc3cncs3)C[C@H]2C(=O)NC(C)(C)C)C(C)C)cs1 | 13 | 84 | 60 | >100 | –
18 | COc1cc(CN2CCN(C[C@@H](O)[C@H](Cc3ccccc3)NC(=O)[C@@H](NC(=O)N(C)Cc3csc(C(C)C)n3)C(C)C)[C@H](C(=O)NC(C)(C)C)C2)ccc1O | 41 | 242 | 63 | 20 | –

Second part, led by results:

Row | EC50 [2] [nM] | EC50 [3] [nM] | inhibition [4] [%] | SMILES | CCIC50 [1] [µM] | also measured
19 | 16 | 132 | 37 | CCc1ncc(COC(=O)N[C@H](C(=O)N[C@@H](Cc2ccccc2)[C@H](O)CN2CCN(Cc3ccc(OC)c(OC)c3)C[C@H]2C(=O)NC(C)(C)C)C(C)C)s1 | 50 | IC50 [5]: 35000 nM
20 | 17 | 46 | 62 | COc1ccc(CN2CCN(C[C@@H](O)[C@H](Cc3ccccc3)NC(=O)[C@@H](NC(=O)OCc3csc(C(C)C)n3)C(C)C)[C@H](C(=O)NC(C)(C)C)C2)cc1OC | 18 | –
21 | 19 | 42 | 82 | CCc1nc(COC(=O)N[C@H](C(=O)N[C@@H](Cc2ccccc2)[C@H](O)CN2CCN(Cc3ccc(OC)c(OC)c3)C[C@H]2C(=O)NC(C)(C)C)C(C)C)cs1 | 45 | –
22 | 10 | 42 | 49 | COc1ccc(CN2CCN(C[C@@H](O)[C@H](Cc3ccccc3)NC(=O)[C@@H](NC(=O)OCc3csc(C)n3)C(C)C)[C@H](C(=O)NC(C)(C)C)C2)cc1OC | 57 | IC50 [5]: 120000 nM
23 | 11 | 74 | 45 | Cc1nc(COC(=O)N[C@H](C(=O)N[C@@H](Cc2ccccc2)[C@H](O)CN2CCN(Cc3ccc4c(c3)OCO4)C[C@H]2C(=O)NC(C)(C)C)C(C)C)cs1 | 56 | –
24 | 17 | 86 | 51 | COc1ccc(CN2CCN(C[C@@H](O)[C@H](Cc3ccccc3)NC(=O)[C@@H](NC(=O)OCc3cnc(C(C)C)s3)C(C)C)[C@H](C(=O)NC(C)(C)C)C2)cc1OC | 21 | –
25 | 21 | 174 | 64 | CC(C)c1nc(COC(=O)N[C@H](C(=O)N[C@@H](Cc2ccccc2)[C@H](O)CN2CCN(Cc3ccc(F)cc3)C[C@H]2C(=O)NC(C)(C)C)C(C)C)cs1 | 15 | –
26 | 11 | 59 | 44 | COc1ccc(CN2CCN(C[C@@H](O)[C@H](Cc3ccccc3)NC(=O)[C@@H](NC(=O)OCc3cnc(C)s3)C(C)C)[C@H](C(=O)NC(C)(C)C)C2)cc1OC | 53 | –
27 | 40 | 142 | 53 | CC(C)c1nc(COC(=O)N[C@H](C(=O)N[C@@H](Cc2ccccc2)[C@H](O)CN2CCN(Cc3cccc(O)c3)C[C@H]2C(=O)NC(C)(C)C)C(C)C)cs1 | 17 | –
28 | 11 | 71 | 50 | Cc1nc(COC(=O)N[C@H](C(=O)N[C@@H](Cc2ccccc2)[C@H](O)CN2CCN(Cc3ccc(F)cc3)C[C@H]2C(=O)NC(C)(C)C)C(C)C)cs1 | 39 | –
